Values after ≈ are worked out from the molar mass of the structure shown. Non-standard residues stand in square brackets, D forms with d. Residues, ends and D or L forms follow the SMILES beside them. Abu = CC[C@H](N)C(=O)O
System: Fusarium culmorum (IMI 180420)
Experiment: Antifungal growth inhibition microplate assay (photospectrometry)
Type: cell-based
Settings: for F CULMORUM IC50: Table 7 / FIG. 8: Rs-AFP1-based 12-mer split peptides; for F CULMORUM MIC: Table 7: Rs-AFP1-based 12-mer split peptides; for IC50 SMF + pH5 / IC50 SMF + pH7 / IC50 1/2 PDB: duplo; for IC50 ½ PDB: peptides single experiment; for IC50 1/2 PDB: 2 × 10^4 spores/ml; for antifungal activity compared with peptide G1 (and G2), in words: 19-mer peptides, Example 7
Procedure: The following fungal strains were used: Alternaria brassicicola (MUCL 20297), Ascophyta pisi (MUCL 30164), Botrytis cinerea (MUCL 30158), Fusarium culmorum (IMI 180420) and Verticillium dahliae (MUCL 19210).
Fungi were grown on six cereal agar plates at room temperature and under white fluorescent light except for F culmorum and V dahliae which were grown in the dark. The duration of the spore harvest varied between 10 and 25 days depending on the strain. Spores were collected as follows. Five to ten ml of sterile milli-Q water was poured into each dish and the surface of the agar was rubbed with a sterile spatula to obtain a suspension containing mycelium and spores. This suspension was filtered through a sterile glasswool-plugged funnel and the filtrate containing the spores was collected in a sterile polypropylene centrifuge tube. The A brassicicola spores were suspended in sterile 0.1 Tween 20 (Merk, 822184) due to their hydrophobic nature. The spore suspensions were then washed twice by centrifugation at 2,400×g for 15 minutes and resuspended in a small volume of steril milli-Q water. The spore density was determined in a counting chamber and then adjusted to 4×10^7 spores per ml. Aliquots of the spore suspension were transferred to sterile microtubes and an equal volume of sterile 50% glycerol (Merck, 4091) was added to each tube so that a final spore suspension of 2×10^7 spores per ml in 25% glycerol was obtained. After careful mixing of the stock, the spore suspension was transferred in 100 μl aliquots to sterile microtubes and stored at −80° C.
Antifungal activity was measured by photospectrometry as described by Broekaert et al, (1990, FEMS Microbiol Lett, 69:55-60). Tests were performed by adding 20 μl of test solution and 80 μl of a fungal spore suspension (2×10^4 spores/ml) per well in a sterile flat-bottom 96-well microtiterplate. The spore suspension was prepared by diluting the stock spore suspension ([…] in 25% glycerol) 1:1000 in half-strength potato dextrose broth. A positive growth control consisting of eight wells containing 20 μl of sterile milli-Q water and 80 μl of the fungal spore suspension was included in each test. The microtiterplates were incubated (with the lid on) in an aerated place at room temperature and under conditions of darkness for all test organisms.
After 30 minutes of incubation (when the spores are settled on the well bottom) the optical density was measured in a microplate reader (Bio Rad 3550-UV) at 595 nm. Incubation of the microtiterplates continued until the optical density of the control microculture was between 0.250 and 0.500, which took approximately 72 hours (96 hours for V dahliae). Percentage of growth inhibition (% GI) was estimated as 100 times the ratio of the corrected absorbance of the control microculture minus the corrected absorbance of the test microculture over the corrected absorbance of the control microculture at 595 nm. The corrected absorbance values equal the absorbance at 595 nm of the culture measured after 72 or 96 hours minus the absorbance at 595 nm measured after 30 minutes.
% GI=[(Acontrol−Atest/Acontrol]×100
where Acontrol=(A72/96h−A30min)control
The IC50 value is defined as the concentration that gives a 50% growth inhibition after 72 or 96 hours of incubation. The minimum inhibitory concentration (MIC) corresponds to the minimum concentration that gives 100% growth inhibition after 72 or 96 hours incubation.

[1] = Table 4 / FIG. 6: Rs-AFP2-based 12-mer split peptides, ½ PDB, the source numbers peptides by N-terminal amino acid
[2] = Table 4: Rs-AFP2-based 12-mer split peptides, ½ PDB, triplicate
[3] = ½ PDB, the source numbers peptides by N-terminal amino acid
[4] = Table 14: 18-, 19-, 20-mer peptides with C-terminal Phe49
[5] = Table 13: linear β2-β3 loop MPS peptides
[6] = Table 10: medium 1/16 PDB, one test, fungus not named in Example 7
[7] = Table 10: medium ½ PDB, one test, fungus not named in Example 7
[8] = Table 13: linear β2-β3 loop MPS peptides, SMF+ (1 mM Ca2+, 50 mM K+) pH5
[9] = Table 13: linear β2-β3 loop MPS peptides, SMF+ (1 mM Ca2+, 50 mM K+) pH7

Compound	IC50 [1]	MIC [2]	F CULMORUM IC50 [3]	F CULMORUM MIC (½ PDB)	IC50 1/2 PDB [5]	IC50 SMF + pH5 [8]	IC50 SMF + pH7 [9]	other results
110 (CKNQCIRLEKAR; listed as Raphanus sativus) [compound 110]	148 µg/mL	200 µg/mL	223 µg/mL	400 µg/mL				
113 (QCIRLEKARHGS; listed as Raphanus sativus) [compound 113]	127 µg/mL	200 µg/mL	362 µg/mL	400 µg/mL				
116 (RLEKARHGSCNY; listed as Raphanus sativus) [compound 116]	202 µg/mL	400 µg/mL	359 µg/mL	400 µg/mL				
CC[C@H](NC(=O)[C@H](CO)NC(=O)CNC(=O)[C@H](Cc1c[nH]cn1)NC(=O)[C@H](CCCNC(=N)N)NC(=O)[C@H](C)NC(C)=O)C(=O)N[C@@H](CC(N)=O)C(=O)N[C@@H](Cc1ccc(O)cc1)C(=O)N[C@H](C(=O)N[C@@H](Cc1ccccc1)C(=O)N1CCC[C@H]1C(=O)N[C@@H](C)C(=O)N[C@@H](Cc1c[nH]cn1)C(=O)N[C@@H](CCCCN)C(=O)N[C@@H](CC)C(=O)N[C@H](C(=O)N[C@@H](CC)C(=O)N[C@@H](Cc1ccc(O)cc1)C(=O)N[C@@H](Cc1ccccc1)C(N)=O)[C@@H](C)CC)C(C)C [Peptide 001, ARHGSBNYVFPAHKBIBYF] (Ac-ARHGS[Abu]NYVFPAHK[Abu]I[Abu]YF-NH2)								IC50 SMF + pH5 [4]: 102 ± 2 μg/ml; IC50 SMF + pH7 [4]: 159 ± 5 μg/ml; IC50 ½ PDB [4]: 5.6 µg/mL (≈ 2.54 µM)
CC[C@H](C)[C@H](NC(=O)[C@H](CS)NC(=O)[C@H](CCCCN)NC(=O)[C@H](Cc1c[nH]cn1)NC(=O)[C@H](C)NC(=O)[C@@H]1CCCN1C(=O)[C@H](Cc1ccccc1)NC(=O)[C@@H](NC(=O)[C@H](Cc1ccc(O)cc1)NC(=O)[C@H](CC(N)=O)NC(=O)[C@H](CS)NC(=O)[C@H](CO)NC(=O)CNC(=O)[C@H](Cc1c[nH]cn1)NC(=O)[C@H](CCCNC(=N)N)NC(=O)[C@H](C)NC(C)=O)C(C)C)C(=O)N[C@@H](CS)C(=O)N[C@@H](Cc1ccc(O)cc1)C(=O)N[C@@H](Cc1ccccc1)C(N)=O [Peptide G1, ARHGSCNYVFPAHKCICYF] (Ac-ARHGSCNYVFPAHKCICYF-NH2)					ARHGSCNYVFPAHKCICYF 17.6 ± 1.1 μg/ml			
CC[C@H](NC(=O)[C@H](CO)NC(=O)CNC(=O)[C@H](Cc1c[nH]cn1)NC(=O)[C@H](CCCNC(=N)N)NC(=O)[C@H](C)NC(C)=O)C(=O)N[C@@H](CC(N)=O)C(=O)N[C@@H](Cc1ccc(O)cc1)C(=O)N[C@H](C(=O)N[C@@H](Cc1ccccc1)C(=O)N1CCC[C@H]1C(=O)N[C@@H](C)C(=O)N[C@@H](Cc1c[nH]cn1)C(=O)N[C@@H](CCCCN)C(=O)N[C@@H](CC)C(=O)N[C@H](C(=O)N[C@@H](CC)C(=O)N[C@@H](Cc1ccc(O)cc1)C(=O)N[C@@H](Cc1ccccc1)C(N)=O)[C@@H](C)CC)C(C)C [Peptide G2, ARHGSBNYVFPAHKBIBYF] (Ac-ARHGS[Abu]NYVFPAHK[Abu]I[Abu]YF-NH2)					16.0 ± 1.2 µg/mL (≈ 7.26 µM)	50.0 ± 6.0 μg/ml	>400 μg/ml	antifungal activity compared with peptide G1 (and G2), in words: does not affect antifungal activity; IC50 [6]: 10 µg/mL (≈ 4.54 µM); MIC [6]: 12.5 µg/mL (≈ 5.67 µM); IC50 [7]: 17 µg/mL (≈ 7.71 µM); MIC [7]: 25 µg/mL (≈ 11.3 µM)
CC[C@H](NC(=O)[C@H](C)NC(=O)CNC(=O)[C@H](Cc1c[nH]cn1)NC(=O)[C@H](CO)NC(=O)[C@H](C)NC(C)=O)C(=O)N[C@@H](Cc1c[nH]cn1)C(=O)N[C@@H](CCCCN)C(=O)N[C@@H](CCCNC(=N)N)C(=O)N[C@@H](CCC(=O)O)C(=O)N[C@@H](CC(N)=O)C(=O)N[C@@H](Cc1c[nH]cn1)C(=O)N[C@@H](Cc1c[nH]c2ccccc12)C(=O)N[C@@H](CCCCN)C(=O)N[C@@H](CC)C(=O)N[C@@H](Cc1ccccc1)C(=O)N[C@@H](CC)C(=O)N[C@@H](Cc1ccc(O)cc1)C(=O)N[C@@H](Cc1ccccc1)C(N)=O [Peptide J1, ASHGABHKRENHWKBFBYF] (Ac-ASHGA[Abu]HKRENHWK[Abu]F[Abu]YF-NH2)					9.1 ± 0.6 µg/mL (≈ 3.94 µM)	47 ± 33 μg/ml	173.4 ± 0.2 μg/ml	antifungal activity compared with peptide G1 (and G2), in words: even more active; IC50 [6]: 5 µg/mL (≈ 2.16 µM); MIC [6]: 6.25 µg/mL (≈ 2.7 µM); IC50 [7]: 9 µg/mL (≈ 3.89 µM); MIC [7]: 12.5 µg/mL (≈ 5.41 µM); activity compared to Rs-AFP counterpart G2 (½ PDB): almost two-fold higher activity
CC[C@H](NC(=O)[C@H](CO)NC(=O)CNC(=O)[C@H](Cc1c[nH]cn1)NC(=O)[C@H](CCCNC(=N)N)NC(=O)[C@H](C)NC(=O)[C@H](CCCCN)NC(C)=O)C(=O)N[C@@H](CC(N)=O)C(=O)N[C@@H](Cc1ccc(O)cc1)C(=O)N[C@H](C(=O)N[C@@H](Cc1ccccc1)C(=O)N1CCC[C@H]1C(=O)N[C@@H](C)C(=O)N[C@@H](Cc1c[nH]cn1)C(=O)N[C@@H](CCCCN)C(=O)N[C@@H](CC)C(=O)N[C@H](C(=O)N[C@@H](CC)C(=O)N[C@@H](Cc1ccc(O)cc1)C(=O)N[C@@H](Cc1ccccc1)C(N)=O)[C@@H](C)CC)C(C)C [Peptide N1, KARHGSBNYVFPAHKBIBYF] (Ac-KARHGS[Abu]NYVFPAHK[Abu]I[Abu]YF-NH2)					14.0 ± 6.2 µg/mL (≈ 6 µM)	27.0 ± 7.7 μg/ml	142.6 ± 13.6 μg/ml	
CC[C@H](NC(=O)[C@H](C)NC(=O)CNC(=O)[C@H](Cc1c[nH]cn1)NC(=O)[C@H](C)NC(=O)[C@H](C)NC(C)=O)C(=O)N[C@@H](Cc1c[nH]cn1)C(=O)N[C@H](C(=O)N[C@@H](CCCNC(=N)N)C(=O)N[C@@H](CC(N)=O)C(=O)NCC(=O)N[C@@H](CCCCN)C(=O)N[C@@H](Cc1c[nH]cn1)C(=O)N[C@@H](CCSC)C(=O)N[C@@H](CC)C(=O)N[C@@H](Cc1ccccc1)C(=O)N[C@@H](CC)C(=O)N[C@@H](Cc1ccc(O)cc1)C(=O)N[C@@H](Cc1ccccc1)C(N)=O)C(C)C [Peptide N5, AAHGABHVRNGKHMBFBYF] (Ac-AAHGA[Abu]HVRNGKHM[Abu]F[Abu]YF-NH2)					8.0 ± 0.4 µg/mL (≈ 3.74 µM)	20.9 ± 1.8 μg/ml	24.2 ± 0.2 μg/ml	activity compared to Rs-AFP counterpart G2 (½ PDB): almost two-fold higher activity
CC[C@H](NC(=O)[C@H](CO)NC(=O)CNC(=O)[C@H](Cc1c[nH]cn1)NC(=O)[C@H](CCCNC(=N)N)NC(C)=O)C(=O)N[C@@H](CC(N)=O)C(=O)N[C@@H](Cc1ccc(O)cc1)C(=O)N[C@H](C(=O)N[C@@H](Cc1ccccc1)C(=O)N1CCC[C@H]1C(=O)N[C@@H](C)C(=O)N[C@@H](Cc1c[nH]cn1)C(=O)N[C@@H](CCCCN)C(=O)N[C@@H](CC)C(=O)N[C@H](C(=O)N[C@@H](CC)C(=O)N[C@@H](Cc1ccc(O)cc1)C(=O)N[C@@H](Cc1ccccc1)C(N)=O)[C@@H](C)CC)C(C)C [Peptide P02, RHGSBNYVFPAHKBIBYF] (Ac-RHGS[Abu]NYVFPAHK[Abu]I[Abu]YF-NH2)								IC50 SMF + pH5 [4]: 69 ± 34 μg/ml; IC50 SMF + pH7 [4]: 133 ± 6 μg/ml; IC50 ½ PDB [4]: 8.9 µg/mL (≈ 4.17 µM)
